Reference: PubChem BioAssay AID1508612

Experiment: passive permeability, PAMPA, ADME assay (AID 1508612)
Conditions: pH 7.4, 30.0 min, 50.0 µM

Row | Structure (SMILES) | Papp
1 | NC(=O)C1CCN(c2nc(-c3ccc4occc(=O)c4c3)cs2)CC1 | 106 ×10⁻⁶ cm/s
2 | O=C(O)c1ccc(O)c2ncc(N3CCCN(CCc4cccc5ccccc45)CC3)cc12 | 974 ×10⁻⁶ cm/s
3 | CCOc1ccc(CCNC(=O)c2cc3ccccc3n2CCN2CCOCC2)cc1OCC | > 1000 ×10⁻⁶ cm/s
4 | Cc1cc(-c2nnc3n2CCCCC3)c(C)n1-c1ccc(Br)cc1 | > 1000 ×10⁻⁶ cm/s
5 | CN1CC=C(c2nc(Nc3ccc(F)c(F)c3)c3ccccc3n2)CC1 | > 1000 ×10⁻⁶ cm/s
6 | CCCCNc1oc(-c2cccc3ccccc23)nc1C#N | 38 ×10⁻⁶ cm/s
7 | FC(F)(F)c1cccc(Sc2nc(-c3ccccc3)nnc2C(F)(F)F)c1 | 17 ×10⁻⁶ cm/s
8 | COc1cc(C(=O)NC2CCCc3c2[nH]c2ccccc32)cc(OC)c1OC (centres undefined) | 189 ×10⁻⁶ cm/s
9 | CC(=O)Nc1ccc(-c2csc(N3CCC(C(N)=O)CC3)n2)cc1 | < 1 ×10⁻⁶ cm/s
10 | Cn1ccc2cc(-c3csc(N4CCC(C(N)=O)CC4)n3)ccc21 | 823 ×10⁻⁶ cm/s
11 | Oc1ccc(CNc2cccnc2)c2cccnc12 | 371 ×10⁻⁶ cm/s
12 | Cc1cccc2nc(-c3ccccn3)c(Nc3ccc(F)cc3)n12 | > 1000 ×10⁻⁶ cm/s
13 | Cc1ccc(N2CCN(c3cnn(-c4nc5ccccc5s4)c(=O)c3Cl)CC2C)cc1 (centres undefined) | 317 ×10⁻⁶ cm/s
14 | Cc1ccc(S(=O)(=O)Nc2cnccc2C(=O)Nc2ccc(-c3nc4ccccc4[nH]3)cc2)cc1 | 2.2 ×10⁻⁶ cm/s
15 | O=C(Nc1nc(-c2ccccc2)cs1)c1ccncc1NS(=O)(=O)c1ccc(F)cc1Cl | > 1000 ×10⁻⁶ cm/s
16 | Cc1cc(C)nc(NC(=S)N2CCN(c3cccc(C(F)(F)F)n3)CC2)c1 | 589 ×10⁻⁶ cm/s
17 | CCCn1cnc2cc(NCc3ccc(OC)cc3OC)ccc21 | > 1000 ×10⁻⁶ cm/s
18 | CCOC(=O)c1nc(Nc2ccc(N3CCC(C)CC3)cc2)c2ccccc2n1 | > 1000 ×10⁻⁶ cm/s
19 | CNc1nc2c(s1)C(c1ccccc1F)CC(=O)N2 (centres undefined) | 52 ×10⁻⁶ cm/s
20 | NC(=O)COCCN1CCN(C(c2ccccc2)c2ccc(Cl)cc2)CC1 (centres undefined) | 359 ×10⁻⁶ cm/s
21 | COc1ccc(OC)c(-c2nnc3ccc(-c4ccc(OC)c(O[C@@H]5CCOC5)c4)nn23)c1 | 877 ×10⁻⁶ cm/s
22 | c1ccc2c(NC3CCCCC3)nc(-c3ccncc3)nc2c1 | > 1000 ×10⁻⁶ cm/s

Row | Structure (SMILES) | Papp
23 | CCOc1ccc(Nc2nc(C)c(NC(=O)c3ccc(C)cc3)c(Nc3ccc(OCC)cc3)n2)cc1 | 211 ×10⁻⁶ cm/s
24 | CCOC(=O)Nc1ccc(NCc2ccc(F)cc2)nc1N | 68.3 ×10⁻⁶ cm/s
25 | COc1cccc(CNCCSc2nnnn2C)c1OCc1ccc(Cl)cc1Cl | > 1000 ×10⁻⁶ cm/s
26 | CCCSc1nc(N[C@@H]2C[C@H]2c2ccc(F)c(F)c2)c2nnn([C@@H]3C[C@H](OCCO)[C@@H](O)[C@H]3O)c2n1 | 776 ×10⁻⁶ cm/s
27 | COC(=O)c1ccnc(-c2cc(C(=O)Nc3ccc(C4(N)CC4)cc3)ccn2)c1 | > 1000 ×10⁻⁶ cm/s
28 | Cc1cccc(C(=O)Nc2ccc(N3CCC(N4CCCCC4)CC3)c(C(=O)O)c2)c1 | 5.2 ×10⁻⁶ cm/s
29 | CCc1ccc(C2N=C(N)Nc3nc4ccccc4n32)cc1 (centres undefined) | 4.65 ×10⁻⁶ cm/s
30 | Cc1cccc(CN2CCN(c3ccccn3)CC2)c1 | > 1000 ×10⁻⁶ cm/s
31 | COc1ccc(-c2nc(N3CCOCC3)c3sc(CN(C)c4ncc(C(=O)NO)cn4)cc3n2)cn1 | 496 ×10⁻⁶ cm/s
32 | O=C1Nc2ccccc2/C1=C\c1ccc(O)c(Cl)c1 | 608 ×10⁻⁶ cm/s
33 | COc1cccc(CNc2ccc(S(=O)(=O)Nc3nccs3)cc2)c1OC | 313 ×10⁻⁶ cm/s
34 | CCCCc1ccc(NC(=O)c2ccc3c(c2)N(S(C)(=O)=O)CC3)cc1 | 706 ×10⁻⁶ cm/s
35 | Cc1c(-c2nsc(NC(=O)c3cccc(Cl)c3)n2)nnn1-c1ccccc1C(F)(F)F | 706 ×10⁻⁶ cm/s
36 | CN1C(=O)C(=O)N2C(=C[C@]3(c4c[nH]c5ccccc45)c4ccccc4N[C@H]23)C1=O | 209 ×10⁻⁶ cm/s
37 | CN1C(=O)CN=C(c2ccccc2Cl)c2cc(Cl)ccc21 | > 1000 ×10⁻⁶ cm/s
38 | O=S(=O)(Nc1nccs1)c1ccc(NCc2ccccc2)cc1 | 320 ×10⁻⁶ cm/s
39 | Cc1ccc(S(=O)(=O)Nc2cnccc2C(=O)Nc2nc(-c3cc(Br)cs3)cs2)cc1 | 9.1 ×10⁻⁶ cm/s
40 | COc1ccc(NC2CCCN(C(=O)CCc3ccccc3F)C2)cc1 (centres undefined) | 923 ×10⁻⁶ cm/s
41 | COc1ccc(-n2nc(C3CCCN(C(=O)Nc4ccccc4)C3)[nH]c2=O)cc1 (centres undefined) | 360 ×10⁻⁶ cm/s
42 | CCOc1ccc(CCNC(=O)c2cccc(C(=O)c3ccccc3)c2)cc1OCC | > 1000 ×10⁻⁶ cm/s
43 | O=C(Nc1nc(-c2ccccn2)cs1)c1cccc(-n2cnnn2)c1 | 290 ×10⁻⁶ cm/s
44 | CCCCN(C)C(=O)c1c(C)sc2ccn(CCC)c(=O)c12 | 124 ×10⁻⁶ cm/s

Row | Structure (SMILES) | Papp
45 | Clc1ccc2ncc(-c3cccc(NC4CCNC4)n3)n2c1 (centres undefined) | 332 ×10⁻⁶ cm/s
46 | CC(C)COc1ccc(-c2csc(N3CCC(C(N)=O)CC3)n2)cc1 | 48.4 ×10⁻⁶ cm/s
47 | COc1cccc(CNc2ccc(S(=O)(=O)Nc3cc(C)on3)cc2)c1O | 62.9 ×10⁻⁶ cm/s
48 | COC(=O)CNC(=O)c1nc(-c2ccc(Cl)cc2Cl)c2cnccn12 | > 1000 ×10⁻⁶ cm/s
49 | NC(=O)C1CCN(c2ncc(-c3ccc(Cl)cc3)s2)CC1 | 714 ×10⁻⁶ cm/s
50 | Fc1cccc(CN2CCNc3cc(Nc4ccccc4)ncc3C2)c1 | < 1 ×10⁻⁶ cm/s
51 | Cc1noc(C)c1-c1cc2c(cc(C)n2C)c(-c2cnn(C)c2)n1 | 549 ×10⁻⁶ cm/s
52 | CCc1ccc(NC(=O)c2[nH]c(C)c(C(C)=O)c2C)cc1[S+](=O)([O-])Nc1ccccc1C#N | 74.2 ×10⁻⁶ cm/s
53 | NC(CO)(CO)CCc1ccc(Sc2cccc(OCc3ccccc3)c2)cc1Cl | 210 ×10⁻⁶ cm/s
54 | CSc1nc(N)cc(Oc2ccc(-c3nc(Nc4cccc(C(F)(F)F)c4)n[nH]3)cc2)n1 | 633 ×10⁻⁶ cm/s
55 | CCN1CCN(c2ccc3cc(S(=O)(=O)N4CCOCC4)ccc3n2)CC1 | > 1000 ×10⁻⁶ cm/s
56 | Fc1cc(Nc2nc(-c3ccncc3)nc3ccccc23)ccc1-c1ccc2[nH]ncc2c1 | 42 ×10⁻⁶ cm/s
57 | COc1ccc(-n2nc(C3CCN([S+](=O)([O-])c4cccc(C(F)(F)F)c4)CC3)[nH]c2=O)cc1 | 242 ×10⁻⁶ cm/s
58 | CCN1CCN(C(=O)CCCn2nc(C)c3c(C)n(-c4ccc(C)cc4)nc3c2=O)CC1 | 175 ×10⁻⁶ cm/s
59 | NC(=O)C1CCN(c2nc(-c3ccc(F)cc3)cs2)CC1 | 198 ×10⁻⁶ cm/s
60 | O=C1Nc2ccc(C(=O)c3ccco3)cc2/C1=C/c1cc(Cl)c(O)c(Cl)c1 | 41.1 ×10⁻⁶ cm/s
61 | Clc1ccc(-c2noc3ncnc(N4CCCCC4)c23)cc1 | > 1000 ×10⁻⁶ cm/s
62 | CCN(CCCOc1ccc2c(Nc3cc(CC(=O)Nc4cccc(F)c4)[nH]n3)ncnc2c1)CCOP(=O)(O)O | < 1 ×10⁻⁶ cm/s
63 | O=C(Nc1ccc(F)cc1F)c1cc(-c2ccc[nH]2)n[nH]1 | 103 ×10⁻⁶ cm/s
64 | O=C(NCc1ccc(N2CCCC2)nc1)c1cc(Cl)ccc1O | > 1000 ×10⁻⁶ cm/s
65 | Cc1nc([N+](=O)[O-])cn1-c1ccc([N+](=O)[O-])cc1 | 27.9 ×10⁻⁶ cm/s
66 | Fc1cccc(CNc2nc(-c3ccccc3C(F)(F)F)nc3ccccc23)c1 | 315 ×10⁻⁶ cm/s

Row | Structure (SMILES) | Papp
67 | CC(=O)c1c(C)[nH]c(C(=O)Nc2cccc([S+](=O)([O-])Nc3ccncc3)c2)c1C | 1.51 ×10⁻⁶ cm/s
68 | Cc1cc(Br)ccc1NC(=O)C(NS(=O)(=O)c1cccs1)c1ccccc1 (centres undefined) | < 1 ×10⁻⁶ cm/s
69 | Cc1cc(NS(=O)(=O)c2ccc(N(C)C(=O)Cc3ccc(Cl)c(Cl)c3)cc2)no1 | 48.1 ×10⁻⁶ cm/s
70 | O=C(Nc1ncc(Cc2ccc(C(F)(F)F)cc2)s1)c1ccc(-c2cccnc2)o1 | 984 ×10⁻⁶ cm/s
71 | CC(C)c1ccccc1-c1ncc(F)c(NCC2CCN(c3cccnc3)CC2)n1 | > 1000 ×10⁻⁶ cm/s
72 | CC(C)CNc1ccnc(NCc2csc(-c3ccccc3)n2)n1 | > 1000 ×10⁻⁶ cm/s
73 | COc1ccnc(NC(=S)N2CCN(c3cccc(C(F)(F)F)c3)CC2)c1 | 417 ×10⁻⁶ cm/s
74 | CSc1ncc(Cl)c(C(=O)Nc2c(C)cccc2C)n1 | 508 ×10⁻⁶ cm/s
75 | N#Cc1ccc(-c2csc(N3CCC(C(N)=O)CC3)n2)cc1 | 406 ×10⁻⁶ cm/s
76 | CC(=O)c1ccc(N[S+](=O)([O-])c2cccc(NC(=O)c3[nH]c(C)c(C(C)=O)c3C)c2)cc1 | < 1 ×10⁻⁶ cm/s
77 | COc1ccc(-n2nc(C3CCN(C(=O)C4CC4)CC3)[nH]c2=O)cc1 | 148 ×10⁻⁶ cm/s
78 | O=C(Nc1ncnc2sc3c(c12)CCC3)c1ccco1 | 369 ×10⁻⁶ cm/s
79 | CCOc1ccc(CCNC(=O)c2cc3sccc3n2C)cc1OCC | > 1000 ×10⁻⁶ cm/s
80 | Cn1nnnc1Sc1ncnc2scc(-c3ccc(F)cc3)c12 | 911 ×10⁻⁶ cm/s
81 | COc1cc([C@@H](CC(=O)O)c2ccc(C)c(CN3C[C@@H](C)Oc4ccccc4S3(=O)=O)c2)cc2nnn(C)c12 | 2.9 ×10⁻⁶ cm/s
82 | O=C1CCCC2=C1C(c1[nH]ncc1Cl)N=C(Nc1nc3cc([S+](=O)([O-])N4CCCC4)ccc3o1)N2 (centres undefined) | 47 ×10⁻⁶ cm/s
83 | CCOc1ccc(CCNC(=O)c2cc3ccncc3n2Cc2cccc(C)n2)cc1OCC | 3.77 ×10⁻⁶ cm/s
84 | CC(C)Oc1ccc(-c2ccc(=O)n(CC(=O)NCCc3ccccc3)n2)cc1 | > 1000 ×10⁻⁶ cm/s
85 | CCN1CCC(N(Cc2ccc3c(c2)OCO3)C(=O)Nc2cc(Cl)ccc2C(=O)OC)CC1 | > 1000 ×10⁻⁶ cm/s
86 | CC(C)CC(=O)Nc1n[nH]c2c1CN(C(=O)C1CCN(C)CC1)C2(C)C | < 1 ×10⁻⁶ cm/s
87 | COC(=O)Nc1nc2ccc(SC(C)C)cc2[nH]1 | 433 ×10⁻⁶ cm/s
88 | COc1ccc(-n2nc(C3CCN([S+](=O)([O-])c4c(C)noc4C)CC3)[nH]c2=O)cc1 | 403 ×10⁻⁶ cm/s

Row | Structure (SMILES) | Papp
89 | Cc1ccnc(NC(=S)N2CCC(c3cccc(C(F)(F)F)c3)CC2)c1 | 672 ×10⁻⁶ cm/s
90 | O=C(c1ccco1)N1CCN(c2nc(-c3ccc(Br)cc3)cs2)CC1 | 4.09 ×10⁻⁶ cm/s
91 | Nc1ccc(CNc2ccc([S+](=O)([O-])Nc3nccs3)cc2)c(O)c1 | < 1 ×10⁻⁶ cm/s
92 | Cc1cc(-c2nnc3n2CCCCC3)c(C)n1-c1ccc([N+](=O)[O-])cc1 | 20.8 ×10⁻⁶ cm/s
93 | COc1ccc(C2CC(=O)Nc3nc(N)sc32)cc1OC (centres undefined) | 36.1 ×10⁻⁶ cm/s
94 | CC1CCc2ccc(F)cc2N1S(=O)(=O)c1cccs1 (centres undefined) | 795 ×10⁻⁶ cm/s
95 | COc1ccc(NC2=C(c3ccc(C(F)(F)F)cc3)C(=O)c3ccccc32)cc1 | 82 ×10⁻⁶ cm/s
96 | CNc1oc(-c2cccc(-c3ccccc3)c2)nc1C#N | 918 ×10⁻⁶ cm/s
97 | COc1ccc(NC(=O)c2[nH]c(C)cc2C)cc1S(=O)(=O)Nc1ccc(Br)cc1 | > 1000 ×10⁻⁶ cm/s
98 | Cc1noc(C)c1-c1ccc(-c2cc(C(N)=O)c(NC(N)=O)s2)c(O[C@H]2CCNC2)c1 | < 1 ×10⁻⁶ cm/s
99 | CC(C)(C)c1ccc(-c2ccc(=O)n(CC(=O)NCCc3ccccc3)n2)cc1 | > 1000 ×10⁻⁶ cm/s
100 | O=C1Nc2ccccc2C12CC2c1cc(Cl)c(O)c(Cl)c1 (centres undefined) | 278 ×10⁻⁶ cm/s
101 | O=C1NCc2cc(-c3cc4c(ccn4Cc4ccncc4)c(N4CCOCC4)n3)ccc21 | 189 ×10⁻⁶ cm/s
102 | NC(=O)N1CCN(c2nc(-c3ccc(Br)cc3)cs2)CC1 | 958 ×10⁻⁶ cm/s
103 | CCOC(=O)N1CCN(Cc2nc3c(c(=O)n(C)c(=O)n3C)n2Cc2ccc(F)cc2)CC1 | 550 ×10⁻⁶ cm/s
104 | Cc1noc(C)c1S(=O)(=O)Nc1cnccc1C(=O)Nc1nc(-c2ccccc2)cs1 | 339 ×10⁻⁶ cm/s
105 | COc1ccc(-c2nc3ncccc3[nH]2)cc1 | 139 ×10⁻⁶ cm/s
106 | Cn1ncnc1[C@H]1c2n[nH]c(=O)c3cc(F)cc(c23)N[C@@H]1c1ccc(F)cc1 | 60.5 ×10⁻⁶ cm/s
107 | CC(C)c1c(-c2ccccc2)nc2c(C#N)c[nH]n2c1=O | 9.91 ×10⁻⁶ cm/s
108 | O=C(Cc1ccc(Cl)c(Cl)c1)Nc1ccc([S+](=O)([O-])Nc2ccccn2)cc1 | 651 ×10⁻⁶ cm/s
109 | Cc1ccccc1NC(=O)Nc1cccs1 | 106 ×10⁻⁶ cm/s
